≈ marks a conversion by molar mass, not a printed value.
Key:
Assay type in all cases: functional
[1] = system: Mycolicibacterium smegmatis; test: Antimycobacterial activity against Mycobacterium smegmatis CIP7326 assessed as inhibition of mycobacterial growth incubated for 24 hrs by broth microdilution method
[2] = Antimycobacterial activity against Mycobacterium abscessus subsp. bolletii assessed as inhibition of mycobacterial growth incubated for 2 to 3 days by broth microdilution method; conditions: Mycobacteroides abscessus; time 2-3 day
Pseudomonas aeruginosa = test: Antibacterial activity against Pseudomonas aeruginosa ATCC 15442 assessed as inhibition of bacterial growth incubated for 24 hrs by broth microdilution method

| Compound | MIC [1] [µg/mL] | MIC [2] [µg/mL] | MIC (Pseudomonas aeruginosa) [µg/mL] |
| --- | --- | --- | --- |
| CO[C@H]1/C=C/O[C@@]2(C)Oc3c(C)c(O)c4c(O)c(c(/C=N/N5CCN(C)CC5)c(O)c4c3C2=O)NC(=O)/C(C)=C\C=C\[C@H](C)[C@H](O)[C@@H](C)[C@@H](O)[C@@H](C)[C@H](OC(C)=O)[C@@H]1C [RIFAMPIN] | 0.1 (≈ 0.122 µM) | 0.1 (≈ 0.122 µM) |  |
| cetrimide |  |  | 0.1 |

Reference: ChEMBL document CHEMBL4840341, “Voatriafricanines A and B, Trimeric Vobasine-Aspidosperma-Aspidosperma Alkaloids from Voacanga africana” (J Nat Prod, 2021)
